This note sets out measurements from patent publication US20250074891A1 (Anaxis Pharma Pty Ltd., priority 2021, published 2025).

Each structure is given as a SMILES string. Read-outs that look alike come from different tables or passages of the source. Some results are limits rather than exact numbers.

One assay relates to U937 cells. The experiment in a line: Counter screen: cell viability without TSQ cocktail (off-target effect). Also on record: species or system human. On the procedure:
Counter screen: In parallel, all compounds were tested for their ability to affect cell viability. The same U937 cells were treated with compound in DMSO without the TSQ cocktail. This counter screen enabled evaluation of off-target effects. In this case, cell viability was measured by CelltiterGlo.
For orientation: Counterscreens check selectivity or assay interference.

For another assay, the target named is MLKL (full length) (Homo sapiens (Human), UniProt Q8NB16). The experiment in a line: KINOMEscan binding assay, MLKL (full length). On the procedure: (§1) Kinase assays. For most assays, kinase-tagged T7 phage strains were grown in parallel in 24-well blocks in an E. coli host derived from the BL21 strain. E. coli were grown to log-phase and infected with T7 phage from a frozen stock (multiplicity of infection=0.4) and incubated with shaking at 32° C. until lysis (90-150 minutes).
MLKL (full length), sequence (Q8NB16 whole entry): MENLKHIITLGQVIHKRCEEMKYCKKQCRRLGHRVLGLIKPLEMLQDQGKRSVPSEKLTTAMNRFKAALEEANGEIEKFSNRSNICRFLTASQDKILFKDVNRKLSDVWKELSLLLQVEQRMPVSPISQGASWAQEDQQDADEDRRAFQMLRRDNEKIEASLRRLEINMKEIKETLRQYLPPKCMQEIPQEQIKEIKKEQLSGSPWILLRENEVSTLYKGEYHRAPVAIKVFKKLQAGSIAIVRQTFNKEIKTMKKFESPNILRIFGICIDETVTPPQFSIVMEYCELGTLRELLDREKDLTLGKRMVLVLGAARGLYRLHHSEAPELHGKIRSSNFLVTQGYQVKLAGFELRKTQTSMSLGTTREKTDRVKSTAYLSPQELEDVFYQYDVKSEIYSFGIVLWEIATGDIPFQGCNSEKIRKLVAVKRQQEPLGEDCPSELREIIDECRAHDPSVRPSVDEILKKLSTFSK
(§2) The Hill Slope was set to −1.

For a further assay, the target named is endogenous MLKL in U937 (Homo sapiens (Human), UniProt Q8NB16). The experiment in a line: Degradation assay: degradation of endogenous MLKL in human cells (Western blot). As to conditions: 24 h incubation, read-out: Degradation of endogenous MLKL in U937 (DC50 cell-based assay in μM). On the procedure: DEGRADATION ASSAY: Screening Compounds Procedure to Evaluate the Activity of Compounds in Degrading Endogenous MLKL in Human Cell
endogenous MLKL in U937, sequence (Q8NB16 whole entry): as above
The human monocyte cell line (U937) was seeded on the day of the experiment in a 24-well plate at a cell density of 5*10^5 cells per well in a volume of 0.5 mL per well.
The compound was diluted in DMSO with a starting concentration of 10 mM and titrated stepwise with a dilution of 1:5. 0.5 μL of the compound dilution was added to the appropriate well to achieve a final concentration of 10; 2; 0.4; 0.08 and 0.016 μM. A DMSO only well was included as control.
The cells were incubated for 24 h in the presence of the compound at 37° C. and 10% CO2.
After the 24 h incubation period, the medium was removed and cells washed with 0.5 mL PBS. The cells were then lysed directly in 60 μL of 1×SDS gel loading buffer.
The cell lysate was heat-denatured at […] for 10 min. 10 μL of lysate per well were run on 18-well 4-15% Criterion TGX stain free gels (BIO-RAD). The proteins were then transferred onto nitrocellulose membrane with a wet transfer protocol in the Criterion Blotter (BIO-RAD).
Membranes were blocked with 5% skim milk in TBST. Primary antibody against MLKL (clone 3H1, MABC604 Merck) was used at 1:2000 dilution in TBST with 1% BSA and left shaking over night at 4° C. After washes with TBST, the membranes were incubated with goat anti-rat IgG HRP-conjugated antibody (Southern Biotech) in 1% skim milk TBST at 1:10000 dilution for 1 h at room temperature. After TBST washes the bands were imaged on the ChemiDoc MP Imaging Systm (BIO-RAD) with Immobilion Western Chemiluminescent HRP Substrate Forte (Millipore). The loading control GAPDH was probed for with rabbit anti-GAPDH (CST 14C10) at 1:2000 dilution in 1% BSA TBST over night at 4° C. TBST washes were followed by incubation with goat anti-rabbit IgG HRP-conjugated antibody (Southern Biotech) in 1% skim milk TBST at 1:10000 dilution for 1 h at room temperature followed by TBST washes. The signal was detected as described above.
The band intensity was measured in the ImageLab Software (BIO-RAD) and the MLKL values adjusted for loading with GAPDH. The percentage of degradation was calculated by normalizing the compound treated values to the DMSO only control.

In assay [1] the test system is U937 human histiocytic leukemia cell line. The experiment in a line: Cellular assay: inhibition of TSQ induced necroptosis (CellTitre-Glo). The settings on record: U937 cells, TSQ cocktail, 48 hours, read-out: Inhibition of TSQ-induced necroptosis (IC50 cell-based assay). In outline:
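U937 cells (20,000/well) pre-dosed with compound (10-point, 1:3 from 36 μM, 0.3% DMSO), then TSQ (hTNF-Fc 100 ng/ml, Smac mimetic 500 nM, Q-VD-OPh 10 μM) for 48 h at 37 °C. Viability by CellTiter-Glo luminescence, normalised to DMSO (100%) and DMSO+TSQ (0%); IC50 from 4-parameter fit.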

The next assay has as its target RIP1 (Homo sapiens (Human), UniProt Q13546). The assay is described as follows: KINOMEscan binding assay, RIP1. As to conditions: Table 35.
A further assay addresses RIP3 (Homo sapiens (Human), UniProt Q9Y572). The assay is described as follows: KINOMEscan binding assay, RIP3. The settings on record: Table 35. On the procedure:
as §1, §2

[2] abbreviates: Homo sapiens, U-937, Table 38, read-out: Off-target effect (IC50 cell-based assay).
The mark [3] stands for this setting: Homo sapiens, U-937, Table 37, read-out: Off-target effect (IC50 cell-based assay).

RIP3, sequence (Q9Y572 whole entry): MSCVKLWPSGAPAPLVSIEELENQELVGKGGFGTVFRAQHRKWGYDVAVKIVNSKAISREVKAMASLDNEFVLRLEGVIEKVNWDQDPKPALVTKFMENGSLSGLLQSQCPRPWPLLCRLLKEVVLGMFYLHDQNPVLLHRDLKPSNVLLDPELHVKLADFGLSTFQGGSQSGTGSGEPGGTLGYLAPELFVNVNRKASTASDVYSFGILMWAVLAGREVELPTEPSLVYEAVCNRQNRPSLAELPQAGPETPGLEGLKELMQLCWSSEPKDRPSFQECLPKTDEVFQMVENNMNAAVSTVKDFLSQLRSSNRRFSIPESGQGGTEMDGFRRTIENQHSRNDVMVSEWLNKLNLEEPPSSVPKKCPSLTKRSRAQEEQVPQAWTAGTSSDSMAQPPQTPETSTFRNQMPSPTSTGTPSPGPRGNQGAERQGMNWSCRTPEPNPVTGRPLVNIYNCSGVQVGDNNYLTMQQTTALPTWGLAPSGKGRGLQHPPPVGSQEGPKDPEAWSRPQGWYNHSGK
RIP1, sequence (Q13546 whole entry): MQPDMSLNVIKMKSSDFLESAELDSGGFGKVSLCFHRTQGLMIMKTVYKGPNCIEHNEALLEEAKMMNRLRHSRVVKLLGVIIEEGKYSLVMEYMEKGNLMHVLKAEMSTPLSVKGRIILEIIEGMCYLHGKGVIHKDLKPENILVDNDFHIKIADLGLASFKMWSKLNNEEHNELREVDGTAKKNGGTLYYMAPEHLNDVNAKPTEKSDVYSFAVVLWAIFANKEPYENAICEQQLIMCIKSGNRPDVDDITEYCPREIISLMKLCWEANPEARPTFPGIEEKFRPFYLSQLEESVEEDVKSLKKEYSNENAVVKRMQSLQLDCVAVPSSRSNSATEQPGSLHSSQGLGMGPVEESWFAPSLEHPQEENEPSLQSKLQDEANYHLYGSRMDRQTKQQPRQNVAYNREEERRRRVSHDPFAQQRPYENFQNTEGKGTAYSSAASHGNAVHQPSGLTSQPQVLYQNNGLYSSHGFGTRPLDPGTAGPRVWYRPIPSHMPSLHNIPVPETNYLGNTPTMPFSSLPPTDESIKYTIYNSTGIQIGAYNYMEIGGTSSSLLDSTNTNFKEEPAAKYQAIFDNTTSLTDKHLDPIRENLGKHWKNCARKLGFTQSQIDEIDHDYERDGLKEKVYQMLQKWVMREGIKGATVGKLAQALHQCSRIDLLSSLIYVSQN

For the compound `CCS(=O)(=O)Nc1ccc(-c2n[nH]c(Nc3ccc(C(=O)NCC(=O)N[C@@H](C(=O)N4C[C@@H](O)C[C@@H]4C(=O)NCc4ccc(-c5scnc5C)cc4)C(C)(C)C)cn3)c2C(N)=O)cc1O[C@H](C)c1ccc(F)cc1` (stereo in doubt) [Compound 1026, 3-{4-ethanesulfonamido-3-[(1R)-1-(4-fluorophenyl)ethoxy]phenyl}-5-({5-[({[(2R)-1-[(2R,4S)-4-hydroxy-2-({[4-(4-methyl-1,3-thiazol-5-yl)phenyl]methyl}carbamoyl)pyrrolidin-1-yl]-3,3-dimethyl-1-oxobutan-2-yl]carbamoyl}methyl)carbamoyl]pyridin-2-yl}amino)-1H-pyrazole-4-carboxamide], the IC50 (as a rule, the midpoint of a concentration-inhibition curve) in the assay with U937 cells (setting [2]) is greater than 10 µM; in assay [1] (Homo sapiens, U-937, Table 38), 1 to 10 µM. Moreover, the dissociation constant (Kd) (usually a measure of binding affinity in units of concentration) on MLKL (full length) (Table 36) was less than 0.01 µM. Further, the DC50 (in general, the midpoint of the concentration-degradation curve) on endogenous MLKL in U937 lay within 1 to 10 µM.
Take `CCS(=O)(=O)Nc1ccc(-c2n[nH]c(Nc3ccc(C(=O)NCCCCC(=O)N[C@@H](C(=O)N4C[C@@H](O)C[C@@H]4C(=O)NCc4ccc(-c5scnc5C)cc4)C(C)(C)C)cn3)c2C(N)=O)cc1OC(C)c1ccc(F)cc1` (stereo in doubt) [Compound 1029, 3-{4-ethanesulfonamido-3-[(1R)-1-(4-fluorophenyl)ethoxy]phenyl}-5-({5-[(4-{[(2R)-1-[(2R,4S)-4-hydroxy-2-({[4-(4-methyl-1,3-thiazol-5-yl)phenyl]methyl}carbamoyl)pyrrolidin-1-yl]-3,3-dimethyl-1-oxobutan-2-yl]carbamoyl}butyl)carbamoyl]pyridin-2-yl}amino)-1H-pyrazole-4-carboxamide]: the IC50 in the assay on U937 cells (setting [2]) is greater than 10 µM; in assay [1] (Homo sapiens, U-937, Table 38), less than 1 µM. This compound displayed a Kd at MLKL (full length) (Table 36) of less than 0.01 µM. For the same compound, at endogenous MLKL in U937, the DC50 is 1 to 10 µM.
On to `CCS(=O)(=O)Nc1ccc(-c2n[nH]c(Nc3ccc(C(=O)OCCCCC(=O)N[C@H](C(=O)N4CC(O)C[C@H]4C(=O)NCc4ccc(-c5scnc5C)cc4)C(C)(C)C)cn3)c2C(N)=O)cc1O[C@@H](C)c1ccc(F)cc1` (stereo in doubt) [Compound 1056, 4-{[(2S)-1-[(2S,4S)-4-hydroxy-2-({[4-(4-methyl-1,3-thiazol-5-yl)phenyl]methyl}carbamoyl)pyrrolidin-1-yl]-3,3-dimethyl-1-oxobutan-2-yl]carbamoyl}butyl 6-[(4-carbamoyl-3-{4-ethanesulfonamido-3-[(1S)-1-(4-fluorophenyl)ethoxy]phenyl}-1H-pyrazol-5-yl)amino]pyridine-3-carboxylate], for which the 50% inhibitory concentration (IC50) is greater than 10 µM with U937 cells (Table 38, read-out: Off-target effect (IC50 cell-based assay)) and less than 1 µM in assay [1] (Table 38). This compound gave a dissociation constant Kd at MLKL (full length) (Table 36) of 0.01 to 1 µM. At endogenous MLKL in U937, the half-maximal degradation concentration (DC50) is less than 1 µM.
With `C[C@H](Oc1cc(-c2n[nH]c(Nc3cnccn3)c2C(N)=O)ccc1NS(=O)(=O)CC(F)(F)F)c1cccc(F)c1` [Compound 265, 3-{3-[(1S)-1-(3-fluorophenyl)ethoxy]-4-(2,2,2-trifluoroethanesulfonamido)phenyl}-5-[(pyrazin-2-yl)amino]-1H-pyrazole-4-carboxamide], the IC50 in the assay with U937 cells (setting [3]) is greater than 30 µM; in assay [1] (Homo sapiens, U-937, Table 37), 1 to 30 µM. For the same compound, the values for the Kd at RIP1, at MLKL (full length) (Table 35) and on RIP3 were greater than 30 µM, less than 0.01 µM and greater than 30 µM, respectively.
On to `Cc1cc(Nc2[nH]nc(-c3ccc(NS(=O)(=O)C(F)F)c(O[C@@H](C)c4ccc(F)cc4)c3)c2C(N)=O)nn1C` [Compound 285, (S)-3-(4-((difluoromethyl)sulfonamido)-3-(1-(4-fluorophenyl)ethoxy)phenyl)-5-((1,5-dimethyl-1H-pyrazol-3-yl)amino)-1H-pyrazole-4-carboxamide], for which the half-maximal inhibitory concentration (IC50) with U937 cells (setting [3]) is greater than 30 µM; in assay [1] (Homo sapiens, U-937, Table 37) it was less than 0.01 µM. For the same compound, the values for the Kd at RIP1, on MLKL (full length) (Table 35) and on RIP3 were greater than 30 µM, less than 0.01 µM and greater than 30 µM, respectively.
In the case of `Cc1cnc(Nc2[nH]nc(-c3ccc(NS(=O)(=O)C(F)F)c(OCc4ccc(F)c(F)c4)c3)c2C(N)=O)cn1` [Compound 291, 3-(3-((3,4-difluoro-benzyl)oxy)-4-((difluoro-methyl)sulfon-amido)phenyl)-5-((5-methyl-pyrazin-2-yl)amino)-1H-pyrazole-4-carboxamide], the half-maximal inhibitory concentration (IC50) is 1 to 30 µM in the assay on U937 cells (Table 37, read-out: Off-target effect (IC50 cell-based assay)) and less than 0.01 µM in assay [1] (Table 37). In addition, the Kd was greater than 30 µM on RIP1, less than 0.01 µM at MLKL (full length) (Table 35) and greater than 30 µM at RIP3.
In the case of `CCS(=O)(=O)Nc1ccc(-c2n[nH]c(Nc3ccnc(OCCOCCOCCOCCOCCNC(=O)COc4cccc5c4C(=O)N(C4CCC(=O)NC4=O)C5=O)c3)c2C(N)=O)cc1` (stereo not shown) [Compound 1001, 5-[(2-{[14-(2-{[2-(2,6-dioxopiperidin-3-yl)-1,3-dioxo-2,3-dihydro-1H-isoindol-4-yl]oxy}acetamido)-3,6,9,12-tetraoxatetradecan-1-yl]oxy}pyridin-4-yl)amino]-3-(4-ethanesulfonamidophenyl)-1H-pyrazole-4-carboxamide], the IC50 in the assay with U937 cells (setting [2]) is greater than 10 µM; in assay [1] (Homo sapiens, U-937, Table 38), greater than 10 µM. In addition, the equilibrium dissociation constant (Kd) on MLKL (full length) (Table 36) was less than 0.01 µM. The 50% degradation concentration (DC50) on endogenous MLKL in U937 fell in the range of 1 to 10 µM.
With `Cc1ncsc1-c1ccc(CNC(=O)[C@@H]2C[C@@H](O)CN2C(=O)[C@@H](NC(=O)CCCCOc2ccc(Nc3[nH]nc(-c4ccc(NS(=O)(=O)C(F)F)c(OCc5ccc(F)cc5)c4)c3C(N)=O)nc2)C(C)(C)C)cc1` [Compound 1025, 3-[4-(difluoromethanesulfonamido)-3-[(4-fluorophenyl)methoxy]phenyl]-5-{[5-(4-{[(2S)-1-[(2S,4R)-4-hydroxy-2-({[4-(4-methyl-1,3-thiazol-5-yl)phenyl]methyl}carbamoyl)pyrrolidin-1-yl]-3,3-dimethyl-1-oxobutan-2-yl]carbamoyl}butoxy)pyridin-2-yl]amino}-1H-pyrazole-4-carboxamide], the half-maximal inhibitory concentration (IC50) is greater than 10 µM in the assay with U937 cells (setting [2]) and less than 1 µM in assay [1] (Homo sapiens, U-937, Table 38). In addition, the DC50 on endogenous MLKL in U937 was less than 1 µM.
Consider `Cc1ncsc1-c1ccc(CNC(=O)[C@@H]2C[C@@H](O)CN2C(=O)[C@@H](NC(=O)c2ccc(COc3ccc(Nc4[nH]nc(-c5ccc(NS(=O)(=O)C(F)F)c(O[C@@H](C)c6ccc(F)cc6)c5)c4C(N)=O)nc3)cc2)C(C)(C)C)cc1` [Compound 1030, 3-[4-(difluoromethanesulfonamido)-3-[(1S)-1-(4-fluorophenyl)ethoxy]phenyl]-5-({5-[(4-{[(2S)-1-[(2S,4R)-4-hydroxy-2-({[4-(4-methyl-1,3-thiazol-5-yl)phenyl]methyl}carbamoyl)pyrrolidin-1-yl]-3,3-dimethyl-1-oxobutan-2-yl]carbamoyl}phenyl)methoxy]pyridin-2-yl}amino)-1H-pyrazole-4-carboxamide], for which the half-maximal inhibitory concentration (IC50) in the assay with U937 cells (setting [2]) is greater than 10 µM; in assay [1] (Homo sapiens, U-937, Table 38) it was less than 1 µM. At endogenous MLKL in U937, the half-maximal degradation concentration (DC50) was less than 1 µM.
